This note sets out measurements from ChEMBL document CHEMBL1123233, “Preparation and analgesic activity of (-)-11 alpha-substituted 1,2,3,4,5,6-hexahydro-6 alpha,7-(methyleneoxy)-2,6-methano-3-benzazocines” (J Med Chem, 1986).

Calls of active or inactive are those of the source. The calls are words filed in the database; no cut-off is given here.

For test [1], the system named is Mus musculus. The experiment in a line: Compound was tested in mouse tail-flick analgesic antagonist assay vs morphine at 30 mg/kg. The test is classed as functional.
The species entered for test [2] is Mus musculus. The test can be described thus: Compound was tested in mouse tail-flick antinociceptive assay. The class given is functional.
Test [3] concerns Mus musculus. The experiment in a line: Compound was tested in mouse tail-flick analgesic antagonist assay vs morphine at 30 mg/kg; Inactive. The class given is functional, organism-based. Details: dose 30 mg/kg.
For test [4], the species on record is Mus musculus. The experiment in a line: Compound was tested for its analgesic activity in mouse hotplate assay. The class given is functional.
The species named for test [5] is Mus musculus. The experiment in a line: Compound was tested in phenylquinone antinociceptive assay. The class given is functional.
Test [6] has as its system Mus musculus. The experiment in a line: Compound was tested for its analgesic activity in mouse hotplate assay at 20 mg/kg; Inactive. The test is classed as functional, organism-based. Set-up: dose 20 mg/kg.
Test [7] deals with Mus musculus. The experiment in a line: Compound was tested for its analgesic activity in mouse hotplate assay at 50 mg/kg; Inactive. The test is classed as functional, organism-based. Set-up: dose 50 mg/kg.
In test [8] the test system is Mus musculus. The experiment in a line: Compound was tested in mouse tail-flick antinociceptive assay at 30 mg/kg; Inactive. The class given is functional, organism-based. Set-up: dose 30 mg/kg.
In test [9] the test system is Mus musculus. The experiment in a line: Compound was tested in mouse tail-flick antinociceptive assay at 10 mg/kg; Inactive. Set-up: dose 10 mg/kg. The class given is functional, organism-based.
The species entered for test [10] is Mus musculus. The experiment in a line: Compound was evaluated for analgesic response in the mouse vas deferens assay at 10E-5 M; Inactive. The test is classed as functional, organism-based.
Test [11] is filed under the species Mus musculus. The experiment in a line: Compound was evaluated for antagonism in the mouse vas deferens assay at 10E-6 M; Inactive. The class given is functional, organism-based.
The species entered for test [12] is Mus musculus. The experiment in a line: Compound was evaluated for antagonism in the mouse vas deferens assay in the presence of morphine at 10E-6 M; Inactive. The class given is functional, organism-based.
For test [13], the species on record is Mus musculus. The test can be described thus: Compound was evaluated for analgesic response in the mouse vas deferens assay in the presence of naltrexone. (max response […]). The class given is functional, organism-based.
Test [14] is filed under the species Mus musculus. The experiment in a line: Compound was tested in mouse tail-flick antinociceptive assay. The class given is functional.
For test [15], the species on record is Mus musculus. The test can be described thus: Compound was tested in phenylquinone antinociceptive assay. The class given is functional.
The species named for test [16] is Mus musculus. The experiment in a line: The compound was evaluated for analgesic response in the mouse vas deferens assay (max response 80.6+/-4.0%). The class given is functional, organism-based.
The species entered for test [17] is Mus musculus. The experiment in a line: Compound was evaluated for analgesic response in the mouse vas deferens assay (max response 77.1+/-8.0%). The test is classed as functional, organism-based.
Test [18] is filed under the species Mus musculus. The test can be described thus: Compound was evaluated for analgesic response in the mouse vas deferens assay in the presence of naltrexone. (max response 43.4+/-8.1%). The class given is functional, organism-based.
The species named for test [19] is Mus musculus. The test can be described thus: Compound was tested in mouse tail-flick analgesic antagonist assay vs morphine. The test is classed as functional.

In general, ED50 refers to the dose that gives a 50% effect, or the effect in half of the subjects. As a reminder, the EC50 is the concentration that produces a half-maximal response.

Consider `C=CCN1CC[C@]23c4c5ccc(O)c4O[C@H]2C(=O)CC[C@@]3(O)[C@H]1C5.Cl` [NALOXONE HYDROCHLORIDE], for which, in [1], the AD50 is 0.035 mg/kg.
`CCC[C@H]1C2Cc3ccc(O)c4c3[C@]1(CCN2CCc1ccccc1)CO4`: the results for the ED50 in [2], in test [4] and in test [5] were 1.4 mg/kg, 1.7 mg/kg and 0.2 mg/kg, respectively. The AD50 entry in test [3] is “inactive”.
As to `CCC[C@H]1C2Cc3cccc4c3[C@]1(CCN2C)CO4`, the ED50 in test [2] came to 20.7 mg/kg; in [5] it was 2.9 mg/kg. In addition, the AD50 result in test [3] is “inactive”. In test [6], the ED50 entry was “inactive”.
Regarding `CN1CC[C@]23c4c5ccc(O)c4O[C@H]2[C@@H](O)C=C[C@H]3[C@H]1C5.CN1CC[C@]23c4c5ccc(O)c4O[C@H]2[C@@H](O)C=C[C@H]3[C@H]1C5.O=S(=O)(O)O`, it took a dose of 1.2 mg/kg to reach the 50% effect level in test [4] (ED50).
For `CCOC(=O)CC[C@H]1C2Cc3ccc(OC)c4c3[C@]1(CCN2C)CO4`, the AD50 result in test [3] is “inactive”. Moreover, the ED50 entry in test [7] and in test [8] was “inactive” throughout.
On to `COc1ccc2c3c1OC[C@@]31CCN(C)C(C2)[C@@H]1CCCO`, for which the AD50 result in test [3] was “inactive”. Further, the ED50 result in [9] and in [6] was “inactive” in each case.
As to `CCC[C@H]1C2Cc3ccc(OC)c4c3[C@]1(CCN2C)CO4`, the ED50 in test [2] was determined as 8.1 mg/kg; in [5] it was 0.8 mg/kg. Besides, the AD50 result in [3] was “inactive”. In addition, the EC50 entry in test [10] and in test [11] was “Not Active” throughout. The ED50 result in test [6] was “inactive”.
Regarding `CCC[C@H]1C2Cc3ccc(OC(C)=O)c4c3[C@]1(CCN2C)CO4`, the ED50 result in [12] was “inactive”. In addition, the AD50 entry in test [3] was “inactive”. Besides, the EC50 is 422 nM in test [13] and 85.2 nM in [16]. Moreover, the ED50 was determined as 0.7 mg/kg in test [14] and 0.2 mg/kg in [15].
As for `CCC[C@H]1C2Cc3ccc(O)c4c3[C@]1(CCN2C)CO4`, the values for the ED50 in test [2], in test [4] and in test [5] were 0.4 mg/kg, 1.8 mg/kg and 0.1 mg/kg, respectively. For the same compound, the ED50 entry in [12] is “inactive”. In test [3], the AD50 entry was “inactive”. Moreover, the EC50 in test [17] was determined as 350 nM; in test [18], 3320 nM.
In test [19], `C=CCN1CC[C@]23COc4c(O)ccc(c42)CC1[C@@H]3CCC` returned an AD50 of 0.4 mg/kg. Further, the ED50 entry in [6] and in test [8] was “inactive” throughout.
Regarding `COc1ccc2c3c1O[C@H]1[C@@H](O)C=C[C@H]4[C@@H](C2)N(C)CC[C@@]341.COc1ccc2c3c1O[C@H]1[C@@H](O)C=C[C@H]4[C@@H](C2)N(C)CC[C@@]341.O.O=P(O)(O)O.O=P(O)(O)O` [CODEINE PHOSPHATE], the AD50 entry in test [3] is “inactive”. Further, the ED50 in [4] stood at 9.3 mg/kg; in test [14], 14.5 mg/kg; in test [15], 1.1 mg/kg.
